Results reported in patent publication US20040044264A1, “Use of ionic liquids to separate olefins, diolefins and aromatics” (NOVA Chemicals (International) S.A., priority 2002, published 2004).
Where two headings read alike, the source gives them in different places. Marks after values point to notes of the source that are not given here.

Assay: Hydrocarbon solubility in ionic liquid (volume change of hydrocarbon phase in graduated flask)
Method: The testing apparatus consisted of a flat-bottomed florence flask with a graduated neck. The flask was charged with 75 mL of bmim^+BF4^−, the level being recorded. A known quantity of C5 hydrocarbon was then added to the flask and the flask was sealed. The overall liquid level and the location of the liquid-liquid interfacial meniscus were recorded. The mixture was then agitated to contact the two liquids and the two phases were allowed to separate. The locations of all meniscuses were then recorded. Agitation and phase separation was then repeated until the liquid levels remained unchanged. The volume change of the hydrocarbon phase corresponds to the quantity of hydrocarbon dissolved in the ionic liquid. The testing was conducted at ambient temperature.
The procedure described in Example 1 was performed instead with ethylcyclohexane, ethylbenzene, and styrene. The ionic liquid used was 1-butyl-3-methylimidazolium tetrafluoroborate.

[1] = in bmim+ BF4- ionic liquid containing 1.69 M AgBF4, ambient temperature
[2] = in bmim+ BF4- ionic liquid containing 1.69 M AgBF4

For C=CC(=C)C [Isoprene], the “Solubility (mol C5/L ionic liquid)” value [1] was 1.132 mol C5/L ionic liquid and the “Solubility (mol C5/mol Ag+)” value [1] was 0.670 mol C5/mol Ag+.
In the case of CCC1CCCCC1 [Ethylcyclohexane], the “Solubility (mol C8/L ionic liquid)” value is reported as 0.10 mol C8/L ionic liquid and the “Solubility (mol C8/mol Ag+)” value is reported as 0.06 mol C8/mol Ag+.
In the case of CCC(C)C [Isopentane], the “Solubility (mol C5/L ionic liquid)” value is reported as 0.044 mol C5/L ionic liquid and the “Solubility (mol C5/mol Ag+)” value is reported as 0.026 mol C5/mol Ag+.
In the case of C=Cc1ccccc1 [Styrene], the “Solubility (mol C8/L ionic liquid)” value [2] is reported as > 7.01* mol C8/L ionic liquid and the “Solubility (mol C8/mol Ag+)” value [2] is reported as 4.15* mol C8/mol Ag+.
With CCc1ccccc1 [Ethylbenzene] the “Solubility (mol C8/L ionic liquid)” value [2] was 7.55 mol C8/L ionic liquid and the “Solubility (mol C8/mol Ag+)” value [2] was 4.47 mol C8/mol Ag+.
